# US20230192617A1, “AZABICYCLIC(THIO)AMIDES AS FUNGICIDAL COMPOUNDS” (Bayer CropScience Aktiengesellschaft, priority 2020, published 2023)
# What was measured:
# [1] = tested on: Botrytis cinerea; assay: B-11. Botrytis cinerea in vitro cell test; assay type: cell-based; conditions: 144 h, 20 ppm of active ingredient, 6 days incubation, liquid culture, absorbance, read-out: efficacy (inhibition of fungal growth)
# Summary of the method: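 B. cinerea spores were grown in liquid culture with compound (DMSO ≤1% final). Mycelium growth was measured spectrometrically after 6 days, with inhibition taken as absorbance relative to untreated control wells.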
# [2] = tested on: Colletotrichum lindemuthianum; assay: B-8. Colletotrichum lindemuthianum in vitro cell test; assay type: cell-based; conditions: 144 h, 20 ppm of active ingredient, 6 days incubation, liquid culture, absorbance, read-out: efficacy (inhibition of fungal growth)
# Summary of the method: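 Liquid-culture germination/growth test: compounds in ≤1% final DMSO were added to spore-containing medium. Fungal growth was quantified spectrophotometrically after 6 days of incubation and expressed as inhibition versus untreated controls.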
# [3] = tested on: Pyrenophora teres; assay: B-10. Pyrenophora teres in vitro cell test; assay type: cell-based; conditions: 144 h, 20 ppm of active ingredient, 6 days incubation, liquid culture, absorbance, read-out: efficacy (inhibition of fungal growth)
# Summary of the method: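 Liquid-culture assay on a P. teres spore suspension with compounds added to the medium from DMSO solutions, final DMSO ≤1%. Mycelium growth read spectrometrically after 6 days. Inhibition calculated from absorbance against untreated control wells.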
# [4] = tested on: Pyrenophora teres; assay: In vivo preventive test on Pyrenophora teres (net blotch on barley); conditions: 240 h, 500 ppm of active ingredient, preventive spray on barley, evaluated 10 days after inoculation, read-out: efficacy
# Summary of the method: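 Net blotch spores were sprayed onto barley leaves one day after foliar treatment with water-diluted DMSO/acetone/Tween 80 formulations (solvent-only controls). Plants were kept at 20° C: first 48 hours at 100% relative humidity, then 8 days at 70-80%.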
# [5] = tested on: Alternaria alternata; assay: Alternaria alternata in vitro cell test; assay type: cell-based; conditions: 120 h, 20 ppm of active ingredient, liquid culture, 5 days incubation, spectrometric measurement of mycelium growth, read-out: efficacy (inhibition of fungal growth)
# Summary of the method: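 Spectrometric readout of mycelial growth after 5-day incubation gauged compound effects on spore germination and growth of A. alternata in liquid medium. Compounds were delivered in DMSO at ≤1% final. Absorbance was compared with untreated controls to give inhibition.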
# [6] = tested on: Alternaria brassicae; assay: In vivo preventive test on Alternaria brassicae (leaf spot on radish or cabbage); conditions: 500 ppm of active ingredient, preventive spray on radish or cabbage, evaluated 3 to 4 days after inoculation, read-out: efficacy
# Summary of the method: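 Protective spray on young radish or cabbage: actives in water diluted from DMSO/acetone/Tween 80, with solvent-only controls. Leaves were challenged after 24 h with a spore suspension, and plants were held at 100% RH, 20 °C for 3 to 4 days.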
# [7] = tested on: Sphaerotheca fuliginea; assay: In vivo preventive test on Sphaerotheca fuliginea (powdery mildew on cucurbits); conditions: Podosphaera fuliginea, 192 h; 500 ppm of active ingredient; preventive spray on gherkin; evaluated 8 days after inoculation; read-out: efficacy
# Summary of the method: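 This is a preventive spray test on gherkin seedlings, with compound formulated in DMSO/acetone/Tween 80 in water and solvent-only controls. Spore inoculation followed one day after treatment. Incubation lasted 8 days at 20 °C, 70–80% RH.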
# [8] = tested on: Colletotrichum lindemuthianum; assay: In vivo preventive test on Colletotrichum lindemuthianum (leaf spot on bean); conditions: 168 h, 500 ppm of active ingredient, preventive spray on bean, evaluated 7 days after inoculation, read-out: efficacy
# Summary of the method: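 Young bean plants sprayed with compound in DMSO/acetone/Tween 80 diluted in water; solvent-only controls. Inoculated 24 h later with C. lindemuthianum spore suspension, then kept 24 h at 20 °C/100% RH and 6 days at 20 °C/90% RH.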
Compound,inhibition at 20 ppm [1] [%],inhibition at 20 ppm [2] [%],inhibition at 20 ppm [3] [%],pest or weed control at 500 ppm [4] [%],inhibition at 20 ppm [5] [%],pest or weed control at 500 ppm [6] [%],pest or weed control at 500 ppm [7] [%],pest or weed control at 500 ppm [8] [%]
Cc1ccc(C(F)(F)CNC(=O)c2c(Oc3cccc(C4CC4)c3F)nnc3c2CCCC3)c(C)c1 [I-131],90 to 100,90 to 100,90 to 100,90 to 100,90 to 100,90 to 100,90 to 100,90 to 100
Cc1cc(Cl)ccc1C(F)(F)CNC(=O)c1c(Oc2cccc(C(F)(F)F)c2)nnc2c1CCCC2 [I-145],90 to 100,90 to 100,90 to 100,90 to 100,90 to 100,90 to 100,90 to 100,90 to 100
O=C(NCC(F)c1ccc(Cl)cc1Cl)c1c(Oc2cccc(C(F)(F)F)c2)nnc2c1COCC2 (stereo not drawn) [I-126],90 to 100,90 to 100,90 to 100,70 to 79,90 to 100,90 to 100,90 to 100,90 to 100
Cc1ccc(C(F)(F)CNC(=O)c2c(Oc3cccc(Cl)c3)nnc3c2CCCC3)c(Cl)c1 [I-139],90 to 100,90 to 100,90 to 100,80 to 89,90 to 100,90 to 100,90 to 100,90 to 100
Cc1ccc(C(F)(F)CNC(=O)c2c(Oc3cccc(C(F)(F)F)c3)nnc3c2CCC3)c(Cl)c1 [I-142],90 to 100,90 to 100,90 to 100,90 to 100,90 to 100,90 to 100,90 to 100,90 to 100
Cc1cc(Br)ccc1C(F)(F)CNC(=O)c1c(Oc2cccc(C(F)(F)F)c2)nnc2c1COCC2 [I-127],90 to 100,90 to 100,90 to 100,70 to 79,90 to 100,90 to 100,90 to 100,90 to 100
